Results published in ChEMBL document CHEMBL4028874, “Methodology for Monobactam Diversification: Syntheses and Studies of 4-Thiomethyl Substituted β-Lactams with Activity against Gram-Negative Bacteria, Including Carbapenemase Producing Acinetobacter baumannii” (2017).
≈ marks a conversion by molar mass, not a printed value. Calls of active or inactive are those of the source. The calls are words filed in the database; no cut-off is given here.

Assays:
[1] = system: Pseudomonas aeruginosa; assay: Antibacterial activity against clinical isolates of Pseudomonas aeruginosa ISR-14-004 after 18 hrs by broth microdilution method; assay type: functional
[2] = system: Acinetobacter baumannii; assay: Antibacterial activity against Acinetobacter baumannii ATCC BAA 1793 at 10 ug/ml after 18 hrs by broth microdilution method; assay type: functional
[3] = system: Pseudomonas aeruginosa; assay: Antibacterial activity against Pseudomonas aeruginosa ARC 3502 after 18 hrs by broth microdilution method; assay type: functional; conditions: ARC 3502, 18 h
[4] = system: Acinetobacter baumannii; assay: Antibacterial activity against cephalosporinase producing Acinetobacter baumannii ATCC 17978-PNT-320 after 18 hrs by broth microdilution method; assay type: functional
[5] = system: Acinetobacter baumannii; assay: Antibacterial activity against clinical isolates of Acinetobacter baumannii ISR14-005 after 18 hrs by broth microdilution method; assay type: functional
[6] = system: Burkholderia dolosa; assay: Antibacterial activity against Burkholderia dolosa AU0018 after 18 hrs by broth microdilution method; assay type: functional; conditions: AU0018, 18 h
[7] = system: Pseudomonas aeruginosa; assay: Antibacterial activity against clinical isolates of Pseudomonas aeruginosa ISR-14-003 after 18 hrs by broth microdilution method; assay type: functional
[8] = system: Acinetobacter baumannii; assay: Antibacterial activity against clinical isolates of Acinetobacter baumannii ARC 5079 after 18 hrs by broth microdilution method; assay type: functional
[9] = system: Pseudomonas aeruginosa; assay: Antibacterial activity against Pseudomonas aeruginosa ARC 3506 after 18 hrs by broth microdilution method; assay type: functional; conditions: ARC 3506, 18 h
[10] = system: Acinetobacter baumannii; assay: Antibacterial activity against Acinetobacter baumannii ATCC BAA 1800 at 10 ug/ml after 18 hrs by broth microdilution method; assay type: functional
[11] = system: Klebsiella aerogenes; assay: Antibacterial activity against Enterobacter aerogenes X816 after 18 hrs by broth microdilution method; assay type: functional; conditions: X816, 18 h
[12] = system: Salmonella typhimurium; assay: Antibacterial activity against Salmonella typhimurium ATCC 13311 after 18 hrs by broth microdilution method; assay type: functional, Salmonella enterica subsp. enterica serovar Typhimurium; conditions: Salmonella enterica, ATCC 13311, 18 h
[13] = system: Acinetobacter baumannii; assay: Antibacterial activity against Acinetobacter baumannii ATCC 17961 after 18 hrs by broth microdilution method; assay type: functional; conditions: ATCC 17961, 18 h
[14] = system: Staphylococcus aureus; assay: Antibacterial activity against Staphylococcus aureus SG 511 after 18 hrs by broth microdilution method; assay type: functional; conditions: SG 511, 18 h
[15] = system: Pseudomonas aeruginosa; assay: Antibacterial activity against Pseudomonas aeruginosa 01 after 18 hrs by broth microdilution method; assay type: functional; conditions: Pseudomonas aeruginosa, 01, 18 h
[16] = system: Acinetobacter baumannii; assay: Antibacterial activity against carbapenemase producing Acinetobacter baumannii ATCC 17978-PNT-165 after 18 hrs by broth microdilution method; assay type: functional; conditions: ATCC 17978-PNT-165, 18 h
[17] = system: Proteus mirabilis; assay: Antibacterial activity against Proteus mirabilis X235 after 18 hrs by broth microdilution method; assay type: functional; conditions: X235, 18 h
[18] = system: Acinetobacter baumannii; assay: Antibacterial activity against Acinetobacter baumannii ATCC BAA 1797 after 18 hrs by broth microdilution method; assay type: functional; conditions: ATCC BAA 1797, 18 h
[19] = system: Pseudomonas aeruginosa; assay: Antibacterial activity against Pseudomonas aeruginosa KW799/wt after 18 hrs by broth microdilution method; assay type: functional
[20] = system: Citrobacter freundii; assay: Antibacterial activity against Citrobacter freundii ATCC 29063 after 18 hrs by broth microdilution method; assay type: functional; conditions: ATCC 29063, 18 h
[21] = system: Escherichia coli; assay: Antibacterial activity against Escherichia coli DC0 after 18 hrs by broth microdilution method; assay type: functional; conditions: DC0, 18 h
[22] = system: Pseudomonas aeruginosa; assay: Antibacterial activity against Pseudomonas aeruginosa ARC 3506 after 18 hrs in presence of tazobactam by broth microdilution method; assay type: functional; conditions: ARC 3506, 18 h
[23] = system: Acinetobacter baumannii; assay: Antibacterial activity against clinical isolates of Acinetobacter baumannii ARC 5079 in presence of tazobactam after 18 hrs by broth microdilution method; assay type: functional; conditions: ARC 5079, 18 h
[24] = system: Acinetobacter baumannii; assay: Antibacterial activity against Acinetobacter baumannii ATCC BAA 1800 after 18 hrs by broth microdilution method; assay type: functional; conditions: ATCC BAA 1800, 18 h
[25] = system: Acinetobacter baumannii; assay: Antibacterial activity against Acinetobacter baumannii ATCC BAA 1793 after 18 hrs by broth microdilution method; assay type: functional
[26] = system: Acinetobacter baumannii; assay: Antibacterial activity against clinical isolates of Acinetobacter baumannii ISR14-005 after 18 hrs in presence of tazobactam by broth microdilution method; assay type: functional; conditions: ISR14-005, 18 h
[27] = system: Pseudomonas aeruginosa; assay: Antibacterial activity against Pseudomonas aeruginosa ARC 3502 after 18 hrs in presence of tazobactam by broth microdilution method; assay type: functional; conditions: ARC 3502, 18 h
[28] = system: Pseudomonas aeruginosa; assay: Antibacterial activity against clinical isolates of Pseudomonas aeruginosa ISR-14-003 after 18 hrs in presence of tazobactam by broth microdilution method; assay type: functional; conditions: ISR-14-003, 18 h
[29] = system: Pseudomonas aeruginosa; assay: Antibacterial activity against clinical isolates of Pseudomonas aeruginosa ISR-14-004 after 18 hrs in presence of tazobactam by broth microdilution method; assay type: functional; conditions: ISR-14-004, 18 h

| Compound | MIC ([1]; ISR-14-004, 18 h) | MIC [3] | MIC ([4]; ATCC 17978-PNT-320, 18 h) | MIC ([5]; ISR14-005, 18 h) | MIC [6] | MIC ([7]; ISR-14-003, 18 h) | MIC ([8]; ARC 5079, 18 h) | MIC [9] | MIC [11] | MIC [12] | MIC [13] | MIC [14] | MIC [15] | MIC [16] | MIC [17] | MIC [18] | MIC [19] | MIC [20] | MIC [21] | MIC [24] | other results |
| --- | --- | --- | --- | --- | --- | --- | --- | --- | --- | --- | --- | --- | --- | --- | --- | --- | --- | --- | --- | --- | --- |
| C[C@]1(Cn2ccnn2)[C@H](C(=O)O)N2C(=O)C[C@H]2S1(=O)=O [TAZOBACTAM] | > 20 µg/mL | > 10 µg/mL | < 10 µg/mL | > 20 µg/mL | > 50 µM | > 20 µg/mL | > 10 µg/mL | > 10 µg/mL | – | – | – | – | – | – | – | – | – | – | – | – | Activity [2]: inactive; Activity [10]: inactive |
| CO/N=C(\C(=O)N[C@@H]1C(=O)N(S(=O)(=O)O)[C@H]1CSCCN)c1cnc(N)s1 | > 50 µM | > 50 µM | – | > 50 µM | – | > 50 µM | – | > 50 µM | 0.2 µM (≈ 0.0877 µg/mL) | 12.5 µM (≈ 5.48 µg/mL) | 50 µM (≈ 21.9 µg/mL) | > 50 µM | > 50 µM | 50 µM (≈ 21.9 µg/mL) | 12.5 µM (≈ 5.48 µg/mL) | > 50 µM | > 50 µM | 12.5 µM (≈ 5.48 µg/mL) | 25 µM (≈ 11 µg/mL) | – | – |
| CC(C)(O/N=C(\C(=O)N[C@@H]1C(=O)N(S(=O)(=O)O)[C@H]1CSCCN)c1cnc(N)s1)C(=O)O | > 50 µM | ≥ 50 µM | > 50 µM | > 50 µM | > 50 µM | > 50 µM | > 50 µM | > 50 µM | 9.4 µM (≈ 4.8 µg/mL) | 4.5 µM (≈ 2.3 µg/mL) | > 50 µM | > 50 µM | > 50 µM | 50 µM (≈ 25.5 µg/mL) | 3 µM (≈ 1.53 µg/mL) | 50 µM (≈ 25.5 µg/mL) | > 50 µM | 3 µM (≈ 1.53 µg/mL) | 6 µM (≈ 3.06 µg/mL) | ≥ 50 µM | MIC [22]: > 50 µM; MIC [23]: > 50 µM; MIC ([25]; ATCC BAA 1793, 18 h): ≥ 50 µM |
| POLYMYXIN B | – | – | – | – | – | – | – | – | – | – | – | – | – | – | – | – | – | – | – | – | MIC [1]: 0.05 µM; MIC [4]: < 0.025 µM; MIC [5]: < 0.025 µM; MIC [7]: 0.1 µM; MIC [8]: < 0.1 µM; MIC [25]: < 0.025 µM |
| C[C@H]1[C@H](NC(=O)/C(=N\OC(C)(C)C(=O)O)c2csc(N)n2)C(=O)N1S(=O)(=O)O [AZTREONAM] | – | – | – | – | > 50 µM | – | – | 12.5 to 50 µM | 0.2 µM (≈ 0.0871 µg/mL) | 0.1 µM (≈ 0.0435 µg/mL) | – | > 50 µM | – | 12.5 µM (≈ 5.44 µg/mL) | 0.05 µM (≈ 0.0218 µg/mL) | – | 1.6 µM (≈ 0.697 µg/mL) | 0.1 µM (≈ 0.0435 µg/mL) | 0.1 µM (≈ 0.0435 µg/mL) | 12.5 to 25 µM (≈ 5.44 to 10.9 µg/mL) | MIC ([25]; ATCC BAA 1793, 18 h): 12.5 to 25 µM (≈ 5.44 to 10.9 µg/mL) |

Second part, led by results:

| MIC ([1]; ISR-14-004, 18 h) | MIC [3] | MIC ([4]; ATCC 17978-PNT-320, 18 h) | MIC ([5]; ISR14-005, 18 h) | MIC [6] | MIC ([7]; ISR-14-003, 18 h) | MIC ([8]; ARC 5079, 18 h) | MIC [9] | MIC [11] | MIC [12] | MIC [13] | MIC [14] | MIC [15] | MIC [16] | MIC [17] | MIC [18] | MIC [19] | MIC [20] | MIC [21] | MIC [24] | Compound | other results |
| --- | --- | --- | --- | --- | --- | --- | --- | --- | --- | --- | --- | --- | --- | --- | --- | --- | --- | --- | --- | --- | --- |
| 6 µM | > 50 µM | 0.4 µM | > 50 µM | > 50 µM | 1.6 µM | 1.6 to 25 µM | > 50 µM | 0.075 µM (≈ 0.0683 µg/mL) | 0.025 µM (≈ 0.0228 µg/mL) | 0.2 µM (≈ 0.182 µg/mL) | > 50 µM | 0.4 µM (≈ 0.364 µg/mL) | 0.4 µM (≈ 0.364 µg/mL) | < 0.025 µM | 0.4 µM (≈ 0.364 µg/mL) | 0.4 µM (≈ 0.364 µg/mL) | 0.05 µM (≈ 0.0455 µg/mL) | < 0.025 µM | 0.1 to 0.4 µM (≈ 0.0911 to 0.364 µg/mL) | CC(C)(O/N=C(\C(=O)N[C@@H]1C(=O)N(S(=O)(=O)O)[C@H]1CSCCNC(=O)CN(CCCCNC(=O)c1cccc(O)c1O)C(=O)c1cccc(O)c1O)c1cnc(N)s1)C(=O)O | MIC [26]: 25 µM; MIC [27]: 1.6 µM; MIC [28]: 1.6 µM; MIC [22]: 1.6 to 25 µM; MIC [23]: 1.6 to 50 µM; MIC [29]: 3 µM; MIC ([25]; ATCC BAA 1793, 18 h): 0.1 to 0.4 µM (≈ 0.0911 to 0.364 µg/mL) |
| > 50 µM | > 50 µM | > 50 µM | > 50 µM | > 50 µM | > 50 µM | > 50 µM | > 50 µM | > 50 µM | > 50 µM | > 50 µM | > 50 µM | > 50 µM | > 50 µM | > 50 µM | > 50 µM | > 50 µM | > 50 µM | > 50 µM | > 50 µM | COC(=O)CSC[C@H]1[C@H](NC(=O)Cc2ccccc2)C(=O)N1S(=O)(=O)O | MIC ([25]; ATCC BAA 1793, 18 h): > 50 µM |
